We go through three compounds from paper PMC9033141, “Beta and Gamma Amino Acid-Substituted Benzenesulfonamides as Inhibitors of Human Carbonic Anhydrases” (Pharmaceuticals, 2022).

Series [1] deals with T1, CAI (Homo sapiens, UniProt P00915).
T1 construct: made in house; host or cells: E. coli
Briefly: biochemical. It is filed as binding. The settings on record: for Intrinsic Gibbs energy change (ΔGint), CAI: 37 °C, calculated (Equation 5); for Kd: FTSA, pH 7.0, 37 °C, read-out: Observed Dissociation Constant (Kd_obs), CAI.
Description: (§1) Human CA isozymes were expressed in E. coli (CAI, II, III, IV, VA, VB, VII, XII, XIII, XIV) or mammalian cells (CAVI and CAIX), chromatographically purified following the published protocols [47], and stored at −80 °C. The protein concentration was determined by UV absorption at 280 nm using Beer–Lambert law.
(§2) The QIAGEN Rotor-Gene Q was used to carry out the experiments, with a blue channel used for excitation (365 nm) and detection (460 nm). FTSA in this case relies on an extrinsic probe, 8-anilino-1-naphthalenesulfonate (ANS), to detect the fluorescence increase during protein denaturation, from which protein melting temperature (Tm) can be determined. […] The observed affinity of ligands for CAs was determined by plotting the Tm as a function of ligand concentration and then fitting a curve as described previously [48]. […] Samples were heated from 25 °C to 99 °C at the speed of 1 °C/min.
(§3) The intrinsic thermodynamic parameters were calculated as described in [40]. The intrinsic reaction of inhibitor binding to CA is shown in Equation (1).
(§4) When calculating Kd_int values, these protein and ligand fractions from Equation (1) have to be accounted for (Equations (2) and (3)). The intrinsic dissociation constant is calculated by multiplying Kd_obs value by the corresponding fractions of protein and ligand (Equation (4)). (2) fRSO2NH^−=10^pH−pKa_RSO2NH2/1+10^pH−pKa_RSO2NH2 (3) fCAZnH2O=1−10^pH−pKa_CAZnH2O/1+10^pH−pKa_CAZnH2O (4) Kd_int=Kd_obs×fRSO2NH^−×fCAZnH2O (5) ΔGint0=RTlnKd_int
(§5) The intrinsic standard Gibbs energy changes upon binding were calculated using Equation (5). Here, R—universal ideal gas constant (8.3144 J/mol·K), T—absolute temperature (310.15 K).

Series [2] addresses T2, CAII (Homo sapiens, UniProt P00918).
T2 construct: made in house; host or cells: E. coli
In words: biochemical. It is filed as binding. The settings on record: for Intrinsic Gibbs energy change (ΔGint), CAII: 37 °C, calculated (Equation 5); for Kd: FTSA, pH 7.0, 37 °C, read-out: Observed Dissociation Constant (Kd_obs), CAII.

Another series addresses T3, CAIII (Homo sapiens, UniProt P07451).
T3 construct: made in house; host or cells: E. coli
In words: Fluorescent thermal shift assay (FTSA), CAIII. To be noted: FTSA, pH 7.0, 37 °C; read-out: Observed Dissociation Constant (Kd_obs), CAIII. It counts as binding.

The target of a further series is T4, CAIV (Homo sapiens, UniProt P22748).
T4 construct: made in house; host or cells: E. coli
In words: Fluorescent thermal shift assay (FTSA), CAIV.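 On all read-outs here: recombinant human enzyme, thermal denaturation followed by ANS fluorescence, melting temperature versus ligand concentration fitted for Kd_obs, intrinsic value corrected for deprotonated sulfonamide and Zn-bound water fractions.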 It is filed as binding. To be noted: for Intrinsic Gibbs energy change (ΔGint), CAIV: 37 °C, calculated (Equation 5); for Kd: FTSA, pH 7.0, 37 °C, read-out: Observed Dissociation Constant (Kd_obs), CAIV.

The next series deals with T5, CAVA (Homo sapiens, UniProt P35218).
T5 construct: made in house; host or cells: E. coli
Briefly: Fluorescent thermal shift assay (FTSA), CAVA. It counts as binding. The settings on record: for Kd: FTSA.

In a further series the target is T6, CAVB (Homo sapiens, UniProt Q9Y2D0).
T6 construct: made in house; host or cells: E. coli
Briefly: Fluorescent thermal shift assay (FTSA), CAVB. It is filed as binding. To be noted: for Intrinsic Gibbs energy change (ΔGint), CAVB: 37 °C, calculated (Equation 5); for Kd: FTSA, pH 7.0, 37 °C, read-out: Observed Dissociation Constant (Kd_obs), CAVB.

Another series has as its target T7, CAVI (Homo sapiens, UniProt P23280).
T7 construct: made in house
Briefly: Fluorescent thermal shift assay (FTSA), CAVI.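 On all read-outs here: human CAVI expressed in mammalian cells, ANS fluorescence tracked during thermal unfolding, melting temperature fitted against ligand concentration, intrinsic values corrected for deprotonated sulfonamide and Zn-bound water fractions.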 It is filed as binding. The settings on record: for Intrinsic Gibbs energy change (ΔGint), CAVI: 37 °C, calculated (Equation 5); for Kd: FTSA, pH 7.0, 37 °C, read-out: Observed Dissociation Constant (Kd_obs), CAVI.

Another series has as its target T8, CAVII (Homo sapiens, UniProt P43166).
T8 construct: made in house; host or cells: E. coli
Briefly: Fluorescent thermal shift assay (FTSA), CAVII. It counts as binding. To be noted: for Intrinsic Gibbs energy change (ΔGint), CAVII: 37 °C, calculated (Equation 5); for Kd: FTSA, pH 7.0, 37 °C, read-out: Observed Dissociation Constant (Kd_obs), CAVII.

Series [3] addresses T9, CAIX (Homo sapiens, UniProt Q16790).
T9 construct: made in house
In words: biochemical. It is filed as binding. The settings on record: for Intrinsic Gibbs energy change (ΔGint), CAIX: 37 °C, calculated (Equation 5); for Kd: FTSA, pH 7.0, 37 °C, read-out: Observed Dissociation Constant (Kd_obs), CAIX.

Series [4] addresses T10, CAXII (Homo sapiens, UniProt O43570).
T10 construct: made in house; host or cells: E. coli
In words: biochemical. It counts as binding. The settings on record: for Intrinsic Gibbs energy change (ΔGint), CAXII: 37 °C, calculated (Equation 5); for Kd: FTSA, pH 7.0, 37 °C, read-out: Observed Dissociation Constant (Kd_obs), CAXII.
Description: as §1, §2, §3, §4, §5

The next series deals with T11, CAXIV (Homo sapiens, UniProt Q9ULX7).
T11 construct: made in house; host or cells: E. coli
In words: Fluorescent thermal shift assay (FTSA), CAXIV.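 On all read-outs here: recombinant human CA XIV from E. coli, ANS-based thermal shift: Kd_obs fitted from melting temperature versus ligand concentration, ΔGint from Kd_obs corrected for deprotonated sulfonamide and Zn-water fractions.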 It is filed as binding. The settings on record: for Intrinsic Gibbs energy change (ΔGint), CAXIV: 37 °C, calculated (Equation 5); for Kd: FTSA, pH 7.0, 37 °C, read-out: Observed Dissociation Constant (Kd_obs), CAXIV.

The target of series [5] is T2, CAII. Briefly: Isothermal titration calorimetry (ITC), CAII. It is filed as binding. The settings on record: pH 7.0, 37 °C, read-out: Observed Dissociation Constant (Kd_obs), CAII, ITC data in brackets. In general terms: Isothermal titration calorimetry measures the heat released or taken up as one component is titrated into another.
The nature of series [6]: Determination of compound sulfonamide group pKa (UV-Vis spectra at different pH). To be noted: universal buffer; spectrophotometric, 37 °C; read-out: Sulfonamide pKa. It counts as physicochemical. The procedure:
To calculate the intrinsic thermodynamic parameters of compound binding to CA isozymes, the pKa values of the sulfonamide group and the water molecule bound to the Zn(II) ion at the active site of CA proteins had to be determined. The pKa values for CA isozyme-bound water molecules were taken from, CAI—8.1; CAII—6.9; CAIII—6.5; CAIV—6.6; CAVA—6.7; CAVB—7.0; CAVI—6.0; CAVII—6.8; CAIX—6.6; CAXII—6.8; CAXIII—8.0; CAXIV—6.1. […] The pKa values were calculated as described previously in [28, 52] by normalizing the absorbance, plotting it as a function of pH, then fitting to the Henderson–Hasselbalch equation using the least square method (Figure S105).
Since the pKa values were only able to be measured for compound group 26–36, due to universal buffer pH limitations, intrinsic thermodynamic parameters were not calculated for compounds 2(a,b)–25(a,b), only for compounds 26–36 using experimentally obtained pKa values when possible and using the average pKa value mentioned above for compounds not measured.

Series [7] deals with T12, CAXIII (Homo sapiens, UniProt Q8N1Q1). To be noted: 37 °C; calculated (Equation 5).
Series [8] deals with T12, CAXIII. Briefly: biochemical. The settings on record: Observed Dissociation Constant (Kd_obs), FTSA, pH 7.0, 37 °C.
The target in series [9] is T1, CAI. To be noted: FTSA, pH 7.0, 37 °C; taken from previous publication; read-out: Observed Dissociation Constant (Kd_obs), CAI; cited from earlier work.
Series [10] deals with T2, CAII. The settings on record: FTSA, pH 7.0, 37 °C; taken from previous publication; read-out: Observed Dissociation Constant (Kd_obs), CAII; cited from earlier work.
Series [11] addresses T9, CAIX. The settings on record: FTSA, pH 7.0, 37 °C; taken from previous publication; read-out: Observed Dissociation Constant (Kd_obs), CAIX; cited from earlier work.
For series [12], the target named is T10, CAXII. The settings on record: FTSA, pH 7.0, 37 °C; taken from previous publication; read-out: Observed Dissociation Constant (Kd_obs), CAXII; cited from earlier work.
Series [13] addresses T12, CAXIII. To be noted: read-out: Observed Dissociation Constant (Kd_obs), CAXIII; FTSA, pH 7.0, 37 °C; taken from previous publication; cited from earlier work.

Where two headings read alike, the source gives them in different places.
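Wherever Intrinsic Gibbs energy change (ΔGint), CAII is given: recombinant human CAII, thermal shift with ANS dye fluorescence, Kd_obs from fitting melting temperature versus ligand concentration, intrinsic values corrected for deprotonated sulfonamide and Zn-bound water fractions.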
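Wherever Intrinsic Gibbs energy change (ΔGint), CAXIII is given: recombinant human CAXIII melting temperature tracked by ANS fluorescence in thermal shift assay, Tm fitted against ligand concentration, intrinsic value corrects Kd for deprotonated sulfonamide and Zn-bound water fractions.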

T7 sequence (P23280 21-290 limits assumed): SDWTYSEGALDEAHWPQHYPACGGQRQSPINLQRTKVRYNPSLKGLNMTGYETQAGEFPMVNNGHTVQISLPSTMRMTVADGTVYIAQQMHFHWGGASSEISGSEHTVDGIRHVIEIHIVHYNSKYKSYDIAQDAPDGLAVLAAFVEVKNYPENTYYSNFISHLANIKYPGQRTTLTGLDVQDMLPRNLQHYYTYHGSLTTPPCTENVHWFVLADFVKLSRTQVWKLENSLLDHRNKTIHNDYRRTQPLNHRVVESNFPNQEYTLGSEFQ
T4 sequence (P22748 19-312): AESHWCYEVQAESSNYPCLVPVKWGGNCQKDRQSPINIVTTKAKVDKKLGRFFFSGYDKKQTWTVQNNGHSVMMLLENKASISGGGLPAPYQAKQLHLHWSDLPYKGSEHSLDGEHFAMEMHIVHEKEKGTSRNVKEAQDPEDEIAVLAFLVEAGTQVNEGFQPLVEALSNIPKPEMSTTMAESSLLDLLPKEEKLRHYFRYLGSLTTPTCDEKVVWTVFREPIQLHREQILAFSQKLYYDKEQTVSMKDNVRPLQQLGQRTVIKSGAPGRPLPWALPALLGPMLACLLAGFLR
T1 sequence (P00915 whole entry): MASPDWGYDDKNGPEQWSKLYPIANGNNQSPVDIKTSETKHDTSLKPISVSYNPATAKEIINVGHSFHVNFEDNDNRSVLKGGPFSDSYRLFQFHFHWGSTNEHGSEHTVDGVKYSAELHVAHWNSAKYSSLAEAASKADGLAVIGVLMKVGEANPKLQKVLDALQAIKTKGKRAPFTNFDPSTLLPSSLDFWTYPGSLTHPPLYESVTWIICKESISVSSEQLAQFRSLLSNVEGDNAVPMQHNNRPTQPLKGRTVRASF
T8 sequence (P43166 whole entry): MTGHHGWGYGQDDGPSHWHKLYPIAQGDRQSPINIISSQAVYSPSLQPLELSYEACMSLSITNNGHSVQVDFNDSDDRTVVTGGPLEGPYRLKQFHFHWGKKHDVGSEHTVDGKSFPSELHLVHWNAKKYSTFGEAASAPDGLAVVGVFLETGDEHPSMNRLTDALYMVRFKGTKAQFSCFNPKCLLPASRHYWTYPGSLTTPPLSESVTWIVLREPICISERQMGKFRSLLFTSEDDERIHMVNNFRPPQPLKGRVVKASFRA
T5 sequence (P35218 39-305): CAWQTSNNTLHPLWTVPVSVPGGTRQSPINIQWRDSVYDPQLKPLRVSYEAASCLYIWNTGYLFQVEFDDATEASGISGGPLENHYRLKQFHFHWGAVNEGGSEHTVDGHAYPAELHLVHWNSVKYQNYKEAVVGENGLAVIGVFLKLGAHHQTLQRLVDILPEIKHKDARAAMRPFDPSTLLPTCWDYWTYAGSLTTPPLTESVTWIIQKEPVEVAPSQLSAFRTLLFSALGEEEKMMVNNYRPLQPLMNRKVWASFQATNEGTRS
T10 sequence (O43570 25-354): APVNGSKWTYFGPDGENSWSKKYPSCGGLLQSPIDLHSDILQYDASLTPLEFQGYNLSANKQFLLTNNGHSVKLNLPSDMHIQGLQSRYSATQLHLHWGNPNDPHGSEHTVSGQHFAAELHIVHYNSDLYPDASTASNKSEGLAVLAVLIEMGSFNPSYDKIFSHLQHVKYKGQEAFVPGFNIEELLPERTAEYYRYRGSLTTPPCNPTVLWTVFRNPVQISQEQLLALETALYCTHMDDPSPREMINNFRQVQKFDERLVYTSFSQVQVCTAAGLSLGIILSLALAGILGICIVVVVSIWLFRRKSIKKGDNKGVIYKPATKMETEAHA
T6 sequence (Q9Y2D0 34-317): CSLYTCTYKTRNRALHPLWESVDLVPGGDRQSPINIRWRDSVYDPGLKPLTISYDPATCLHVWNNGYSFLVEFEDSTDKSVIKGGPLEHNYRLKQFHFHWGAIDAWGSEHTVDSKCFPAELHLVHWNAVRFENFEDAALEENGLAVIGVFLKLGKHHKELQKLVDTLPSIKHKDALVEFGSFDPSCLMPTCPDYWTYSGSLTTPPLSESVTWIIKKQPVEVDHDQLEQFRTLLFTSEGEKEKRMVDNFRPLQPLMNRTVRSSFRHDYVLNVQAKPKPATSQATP
T11 sequence (Q9ULX7 16-337): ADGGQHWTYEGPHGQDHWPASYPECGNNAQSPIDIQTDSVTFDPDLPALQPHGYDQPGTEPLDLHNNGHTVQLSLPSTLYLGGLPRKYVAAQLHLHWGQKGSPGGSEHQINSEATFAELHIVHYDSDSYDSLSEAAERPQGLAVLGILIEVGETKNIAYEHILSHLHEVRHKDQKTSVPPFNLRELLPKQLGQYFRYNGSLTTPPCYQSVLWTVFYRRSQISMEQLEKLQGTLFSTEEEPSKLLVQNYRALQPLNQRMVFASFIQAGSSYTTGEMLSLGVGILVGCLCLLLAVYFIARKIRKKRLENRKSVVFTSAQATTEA
T12 sequence (Q8N1Q1 whole entry): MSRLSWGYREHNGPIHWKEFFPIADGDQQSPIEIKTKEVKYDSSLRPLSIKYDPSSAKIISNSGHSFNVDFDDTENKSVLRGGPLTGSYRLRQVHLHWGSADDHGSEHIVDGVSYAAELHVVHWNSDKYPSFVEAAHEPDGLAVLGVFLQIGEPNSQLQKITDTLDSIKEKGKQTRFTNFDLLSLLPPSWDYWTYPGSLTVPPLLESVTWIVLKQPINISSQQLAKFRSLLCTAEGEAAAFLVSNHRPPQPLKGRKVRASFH
T3 sequence (P07451 whole entry): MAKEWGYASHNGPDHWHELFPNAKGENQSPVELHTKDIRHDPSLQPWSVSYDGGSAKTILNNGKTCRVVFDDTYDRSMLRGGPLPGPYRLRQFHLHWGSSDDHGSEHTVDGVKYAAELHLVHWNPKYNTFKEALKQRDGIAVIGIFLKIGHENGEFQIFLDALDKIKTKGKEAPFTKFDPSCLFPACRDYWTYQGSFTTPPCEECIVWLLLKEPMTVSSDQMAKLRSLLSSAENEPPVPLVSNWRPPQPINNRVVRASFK
Description for CAIV: as §1, §2
(§6) The intrinsic thermodynamic parameters were calculated as described in [40]. The intrinsic reaction of inhibitor binding to CA is shown in Equation (1). […] It is known that CA proteins bind sulfonamides only when water molecules are coordinated to the Zn(II) ion, and sulfonamides only bind to CA proteins when their amino group is deprotonated (confirmed by neutron crystallography [53, 54, 55]):(1) CA Zn^II−H2O+RSO2NH^−⇄ CA Zn^II−NH SO2R+H2O
as §4, §5
Description for CAVA: as §1, §2, §6, §4, §5
Description for CAXIV: as §1, §2, §6, §4, §5

The term pKa denotes the pH at which an ionisable group is half protonated. In general, melting point refers to the temperature, or range, at which the solid turns liquid. Take `CCOC(=O)c1sc(N(CCC(=O)O)c2ccc(S(N)(=O)=O)cc2)nc1C` [Compound 31, 3-((5-(Ethoxycarbonyl)-4-methylthiazol-2-yl)(4-sulfamoylphenyl)amino)propanoic acid]: the melting point was 221 to 222 °C. Moreover, at CAI [1], the “Intrinsic Gibbs energy change (ΔGint), CAI” value is -12.5 kcal/mol and the Kd amounted to 2000 nM. Besides, at CAII [2], the “Intrinsic Gibbs energy change (ΔGint), CAII” value was -13.5 kcal/mol and the Kd was 910 nM. Also, on CAIII, the Kd is at least 200000 nM. Besides, at CAIV, the “Intrinsic Gibbs energy change (ΔGint), CAIV” value was -12.5 kcal/mol and the Kd was found to be 6700 nM. The Kd at CAVA (pH 7.0, 37 °C, read-out: Observed Dissociation Constant (Kd_obs), CAVA) is at least 200000 nM. In addition, on CAVB, the “Intrinsic Gibbs energy change (ΔGint), CAVB” value is -11.5 kcal/mol and the Kd was 20000 nM. On CAVI, the “Intrinsic Gibbs energy change (ΔGint), CAVI” value is -12.4 kcal/mol and the Kd amounted to 24000 nM. For the same compound, on CAVII, the “Intrinsic Gibbs energy change (ΔGint), CAVII” value is -13.1 kcal/mol and the Kd worked out at 1700 nM. At CAIX [3], the “Intrinsic Gibbs energy change (ΔGint), CAIX” value is -14.3 kcal/mol and the Kd worked out at 360 nM. Moreover, on CAXII [4], the “Intrinsic Gibbs energy change (ΔGint), CAXII” value was -12.6 kcal/mol and the Kd turned out to be 3800 nM. In addition, at CAXIV, the “Intrinsic Gibbs energy change (ΔGint), CAXIV” value was -13.8 kcal/mol and the Kd was determined as 2000 nM. Moreover, at CAII [5], the Kd is 860 nM. Also, in series [6], the pKa was found to be 10.1. Besides, at CAXIII [7], the “Intrinsic Gibbs energy change (ΔGint), CAXIII” value is -13.4 kcal/mol. This compound returned a Kd on CAXIII [8] of 450 nM.
Regarding `NS(=O)(=O)c1ccc(N(CCC(=O)O)c2nc(-c3ccc(Cl)cc3)cs2)cc1` [Compound 35], the Kd at CAI [9] is 25 nM; at CAII [10] it was 100 nM; on CAIX [11], 560 nM; at CAXII [12], 200 nM; on CAXIII [13] it was 530 nM.
In the case of `COC(=O)CCN(c1ccc(S(N)(=O)=O)cc1)c1nc(C)cs1` [Compound 28, Methyl 3-((4-Methylthiazol-2-yl)(4-sulfamoylphenyl)amino)propanoate], the melting point was 72 to 73 °C. At CAI [1], the “Intrinsic Gibbs energy change (ΔGint), CAI” value is -15 kcal/mol and the Kd is 37 nM. Further, at CAII [2], the “Intrinsic Gibbs energy change (ΔGint), CAII” value was -15.3 kcal/mol and the Kd was determined as 45 nM. Also, on CAIII, the Kd was at least 200000 nM. For the same compound, at CAIV, the “Intrinsic Gibbs energy change (ΔGint), CAIV” value is -13.6 kcal/mol and the Kd stood at 1100 nM. Also, the “Intrinsic Gibbs energy change (ΔGint), CAVA” value on CAVA (37 °C, calculated (Equation 5)) is -11.2 kcal/mol. In addition, at CAVA (200 µM the weakest detectable Kd_obs, read-out: Kd_obs, CAVA), the Kd was determined as 50000 nM. Besides, at CAVB, the “Intrinsic Gibbs energy change (ΔGint), CAVB” value is -15.2 kcal/mol and the Kd stood at 46 nM. For the same compound, at CAVI, the “Intrinsic Gibbs energy change (ΔGint), CAVI” value was -13.2 kcal/mol and the Kd amounted to 7100 nM. Further, on CAVII, the “Intrinsic Gibbs energy change (ΔGint), CAVII” value is -15.1 kcal/mol and the Kd was determined as 77 nM. On CAIX [3], the “Intrinsic Gibbs energy change (ΔGint), CAIX” value was -15.8 kcal/mol and the Kd came to 33 nM. Besides, on CAXII [4], the “Intrinsic Gibbs energy change (ΔGint), CAXII” value was -14.3 kcal/mol and the Kd came out at 250 nM. Moreover, at CAXIV, the “Intrinsic Gibbs energy change (ΔGint), CAXIV” value was -16.4 kcal/mol and the Kd worked out at 29 nM. Besides, at CAII [5], the Kd came to 59 nM. Besides, the pKa in series [6] turned out to be 10.1. The “Intrinsic Gibbs energy change (ΔGint), CAXIII” value on CAXIII [7] is -13.8 kcal/mol. This compound also came in with a Kd at CAXIII [8] of 250 nM.
